Assay results from patent publication US8906383B2, “T cell receptor having binding affinity for a peptide-MHC complex and uses thereof” (King's College London, priority 2007, dated 2014).

Assays:
[1] = system: soluble HLA-A2 molecules; conditions: synthetic peptide; Chang et al., (2003) Tissue Antigens 62: 408-417; cited from earlier work
[2] = system: CD8 T cells from HLA-A2+ type 1 diabetic patients; test: Interferon-gamma cytokine ELISPOT with patient PBMCs; assay type: cell-based, human; conditions: PBMCs of patients with new-onset type 1 diabetes and HLA-A2; peptide 10 μM; FIG. 8a
Protocol: The following ELISPOT assays were carried out using the methods substantially as described in Arif et al., (2004) J Clin Invest 113: 451-63.
Fresh peripheral blood mononuclear cells (PBMCs) in RPMI 1640 supplemented with antibiotics (TC medium; all Life Technologies) and 10% human AB serum (Harlan SeraLab, Leicestershire, UK) were dispensed into 48-well plates at a density of 2×10^6 cells in 0.5 ml supplemented with peptide to a final concentration of 10 μM and incubated at 37° C., 5% CO2, tilted by 5°. Control wells comprised TC medium containing an equivalent concentration of peptide diluent alone (DMSO). On day +1, 0.5 ml pre-warmed TC medium/10% AB was added and on day +2, non-adherent cells were re-suspended using pre-warmed TC medium/2% AB, washed, brought to a concentration of 1×10^6 cells/300 μl and 100 μl dispensed in triplicate into wells of 96-well ELISA plates (Nunc Maxisorp, Merck, Poole, UK) pre-blocked with 1% BSA in PBS and pre-coated with monoclonal anti-IFN-γ capture antibody (U-Cytech, Utrecht, NL). After capture at 37° C., 5% CO2 for 7 hours, cells were lysed in ice cold water, plates washed in PBS/Tween 20 and spots developed according to the manufacturer's instructions. Plates were dried and spots of 80-120 μm counted in a BioReader 3000 (BioSys, Karben, Germany). […]

For ALWGPDPAAA [PPI15-24], the “Capability of being loaded in-vitro by soluble HLA-A2” value [1] is listed as “capable of being loaded in-vitro by soluble HLA-A2 molecules” and the “CD8 T cell reactivity to PPI peptide by interferon-gamma ELISPOT” value [2] is listed as “demonstrate the presence of CD8 T cells specific for”.
With WGPDPAAA [PPI17-24] the “CD8 T cell reactivity to PPI peptide by interferon-gamma ELISPOT” value [2] was “demonstrate the presence of CD8 T cells specific for”.
